In patent US10905691B2, “Use of triazolo(4,5-d)pyrimidine derivatives for prevention and treatment of bacterial infection” (Universite de Liege, priority 2016, dated 2021):
In brackets after ≈: the same amount, converted by molar mass.

How the values were obtained:
S. epidermidis = assay: Time-kill study in logarithmic phase; format: cell-based, Staphylococcus epidermidis
Protocol: To evaluate Triafluocyl antibacterial effect we have tested S. epidermidis liquid growth in the presence of different Triafluocyl concentrations in logarithmic phase. […] A 1:100 inoculum in 50 ml TSB of an O/N culture of S. epidermidis was cultured for 3 hr up to its logarithmic phase (OD600=0.26 and ≈3×10^8 CFU/ml). Bacteria were split in several tubes containing different concentrations of DMSO as vehicle alone or in combination with Triafluocyl in TSB and grown for 100 min at 37° C. with 220 rpm shaking, the OD600 was measured every 20 min.

[1] = test system: E. faecalis VRE (ATCC BAA-2365); assay: Killing curve (CFU counting); format: cell-based, Enterococcus faecalis; details: Triafluocyl 20 μg/ml; Minocycline 10 μg/ml; FIG. 8C
Protocol: E. faecalis VRE (ATCC BAA-2365) was grown overnight in brain heart infusion (BHI) medium, diluted 1:100 in fresh BHI, and incubated aerobically at 37° C. until bacteria growth reached a logarithmic phase (OD600=0.2-0.25).
Triafluocyl (Cayman Chemical, Item No. 15425) (20 μg/ml), Minocycline (Sigma, 10 μg/ml) or vehicle (DMSO) was then added in 5 ml of bacteria suspensions. Bacterial growth was measured after different time intervals by counting the colony-forming units after plating appropriate culture dilutions on BHI agar plates.

S. aureus ATCC 6538 = assay: MIC determination (EUCAST, Mueller-Hinton broth); format: cell-based; details: Staphylococcus aureus, ATCC6538
Protocol: (§1) Further experiments were conducted using different strains of S. aureus, as clinically relevant Gram-positive bacterial strains: ATCC 25904, ATCC 6538, methilcillin-resistant S. aureus (MRSA) ATCC BAA-1556, Glycopeptide intermediate-resistant (GISA) S. aureus Mu-50 (ATCC 700695) in order to determine the Minimal Inhibitory Concentration (MIC) which is the minimal concentration required to prevent bacterial growth; the Minimal Bactericidal Concentration (MBC) which determines the lowest concentration at which an antimicrobial agent kill a particular microorganism and a Minimum Duration for killing 99.9% bacteria (MDK99.9) which is a tolerance metric according to the EUCAST.
MIC determination: A single colony selected from the different strains of S. aureus is resuspended and cultured in the appropriate medium overnight (O/N) in aerobic conditions (37° C. with 220 rpm shaking), next day a 1:100 inoculum in Mueller-Hinton broth (MHB) was incubated in aerobic conditions for 3 hr (OD=0.08-0.1) and an inoculum of 1:300 dilution, corresponding to 3×10^5 CFU/ml, was incubated in presence or absence of different concentrations of Triafluocyl in 1% DMSO. After O/N growth the OD of each culture was measured at 600 nm in a spectrophotometer (OD600). […]

[2] = test system: S. agalactiae (ATCC 12386); assay: MBC and MDK99.9 determination (CFU counting); format: cell-based, Streptococcus agalactiae
Protocol: as §1, with “using” for “using different strains of”, “agalactiae (ATCC 12386),” for “aureus,”, “strains” for “strains: ATCC 25904, ATCC 6538, methilcillin-resistant S. aureus (MRSA) ATCC BAA-1556, Glycopeptide intermediate-resistant (GISA) S. aureus Mu-50 (ATCC 700695)”
MBC and MDK99.9 determination: A single colony selected from S. agalactiae (ATCC 12386) is resuspended and cultured in the appropriate medium (TSB, or BHI) overnight (O/N) in aerobic conditions (37° C. with 220 rpm shaking), next day a 1:100 inoculum in the appropriate medium was incubated in aerobic conditions for 2 h. The culture is then challenged with triafluocyl at MIC concentration or higher concentrations. Bacterial growth was measured after different time intervals by counting the colony-forming units after plating appropriate culture dilutions on BHI agar plates. […] And the real time needed is defined as the MDK99.9. MBC for Triafluocyl against S. agalactiae (ATCC 12386) was 40 μg/ml. MDK99.9 for Triafluocyl against S. agalactiae (ATCC 12386) was 1 hour.

CCCSc1nc(N[C@@H]2C[C@H]2c2ccc(F)c(F)c2)c2nnn([C@@H]3C[C@H](OCCO)[C@@H](O)[C@H]3O)c2n1 [Triafluocyl, (1S,2S,3R,5S)-3-[7-[(1R,2S)-2-(3,4-difluorophenyl)cyclopropylamino]-5-(propylthio)-3H-[1,2,3]-triazolo[4,5-d]pyrimidin-3-yl]-5-(2-hydroxyethoxy)-1,2-cyclopentanediol]
S. epidermidis growth (OD600) (S. epidermidis; 50 μg/ml): slight bacteriostatic activity | number of viable cells (S. epidermidis; 50 μg/ml, at 80 min): 3×10^8 CFU/ml | S. epidermidis growth (OD600) (S. epidermidis; between 10 μg/ml and 20 μg/ml, compared to DMSO (0.25%), 100 min): dose-dependent inhibition | antibacterial effect on E. faecalis VRE (killing curve) [1]: bactericidal effect | MIC (S. aureus ATCC 6538): 20 µg/mL (≈ 38.3 µM) | MDK 99.9 Time (h) needed to kill 99.9% of the started inoculum [2]: 1 h | MBC ([2]; Streptococcus agalactiae, ATCC12386, cut-off 99.9% reduction in CFU): 40 µg/mL (≈ 76.5 µM)
